Patent EP4245832B1, “DETERGENT COMPOSITIONS” (The Procter & Gamble Company, priority 2022, dated 2023)

Test: Laundry test followed by SPME GC/MS headspace analysis of cotton tracers
Conditions: headspace of the perfume ingredient above wet cotton tracers, Ex 1 (PQ22) versus Ex A (nil-PQ22)
Experimental: 100% cotton fabric cut into 30x30cm squares were washed in a mixed cotton/polycotton load of total 3kg in a front load washing machine (Miele 1935) at 40°C cotton short setting, with 2 rinses, using 2.67 mmol/L Ca (15 gpg) water hardness. A 55 ml dose of the respective detergent was added to a dosing cup and placed inside the washing machine. After the wash cycle was finished, the full load was tumbled (using a Miele Novotronic, type: TD7634) for about 1 hour. Table 1: Inventive detergent composition (Ex 1) and comparative laundry detergent composition (Ex A) used in the laundry test:
The load was washed and dried three consecutive times, then placed back into a washing machine After a fourth wash cycle, the wet cotton tracers were separated and packed in aluminium foil until they were ready to be analysed for headspace.
The headspace was analysed using solid […] (SPME) chromatography using the following procedure: • 1. One piece of 4x4 cm cotton tracers were transferred to 25 ml headspace vials. • 2. The fabric samples were equilibrated for 10 minutes at 65°C. • 3. The headspace above the fabrics was sampled via SPME (50/30µm DVB/Carboxen/PDMS) for 5 minutes. • 4. The SPME fiber was subsequently thermally desorbed into the GC. • 5. The analytes were analyzed by GC/MS (GC: Agilent 8890 and MS: Agilent 5977B MS) in full scan mode. The total perfume HS response and perfume headspace composition above the tested legs could be determined.

Compound | % increase Ex 1 vs Ex A
CC(=O)c1ccc2ccccc2c1 [Methyl Beta-napthyl ketone, 1-(naphthalen-2-yl)ethan-1-one] | 268%
CC(C)c1cccc(C(C)CC=O)c1 (stereo not shown) [Florhydral, 3-(3-isopropylphenyl)butanal] | -60%
C=CC(C)(O)CCC=C(C)C (stereo not shown) [Linalool, 3,7-dimethylocta-1,6-dien-3-ol] | 42%
CC1=CCC2CC1C2(C)C (stereo not drawn) [Alpha pinene, 2,6,6-trimethylbicyclo(3.1.1)hept-2-ene] | -33%
CCC(=O)OCC(C)(C)OC(C)C1CCCC(C)(C)C1 (stereo not shown) [Helvetolide, 2-(1-(3,3-dimethylcyclohexyl)ethoxy)-2-methylpropyl propionate] | -50%
CC1/C=C/CCCCCCCCCCC(=O)C1 (stereo not shown) [Delta muscenone, (E)-3-methylcyclopentadec-4-en-1-one] | -27%
O=C1CCCCCCCCCCCCCCO1 [Exaltolide total, oxacyclohexadecan-2-one] | -33%
COc1ccc2ccccc2c1 [Beta napthol methyl ether, 2-methoxynaphthalene] | 104%
C=CC(C)(CCC=C(C)C)OC(=O)CC (stereo not shown) [Linalyl propionate, 3,7-dimethylocta-1,6-dien-3-yl propionate] | -50%
CC(C)=CCCC(C)CCO (stereo not shown) [Citronellol, 3,7-dimethyloct-6-en-1-ol] | 108%
CC(=O)OCc1ccccc1 [Benzyl acetate, benzyl acetate] | 1840%
CCOC(=O)C1OC1(C)c1ccccc1 (stereo not shown) [Ethyl methyl phenyl glycidate, ethyl 3-methyl-3-phenyloxirane-2-carboxylate] | inf
C=CCOC(=O)COCCC(C)C [Allyl amyl glycolate, allyl 2-(isopentyloxy)acetate] | 2003%
CCOC(=O)C1=C(C)C=CCC1(C)C [Ethyl safranate, ethyl 2,6,6-trimethylcyclohexa-1,3-diene-1-carboxylate] | 26%
CCCCCCCC=O [Octyl Aldehyde, octanal] | 16%
3-(3,3-dimethyl-2,3-dihydro-1H-inden-5-yl)propanal mixt. wth 3-(1,1-dimethyl-2,3-dihydro-1H-inden-5-yl)propanal [Neo Hivernal] | -58%
CC(C)=CCCC(C)CC#N (stereo not shown) [Citronellyl nitrile, 3,7-dimethyloct-6-enenitrile] | 457%
CC(C)(O)CCc1ccccc1 [Phenyl ethyl dimethyl carbinol, 2-methyl-4-phenylbutan-2-ol] | 1106%
COC(=O)c1ccccc1O [Methyl salicylate, methyl 2-hydroxybenzoate] | 915%
COc1ccc(C)cc1 [Para cresyl methyl ether, 1-methoxy-4-methylbenzene] | 13731%
CCCC(=O)OCCC(C)C [Isoamyl butyrate, isopentyl butyrate] | 8685%
CC(=O)/C=C/C1=C(C)CCCC1(C)C [Ionone beta, (E)-4-(2,6,6-trimethylcyclohex-1-en-1-yl)but-3-en-2-one] | 18%
COc1ccc(C=O)cc1 [Anisic aldehyde, 4-methoxybenzaldehyde] | 854%
CC(C=O)Cc1ccc(C(C)(C)C)cc1 (stereo not shown) [Lilial, 3-(4-(tert-butyl)phenyl)-2-methylpropanal] | -55%
C=C(C)C1CC=C(C)C(=O)C1 (stereo not shown) [Laevo carvone, 2-methyl-5-(prop-1-en-2-yl)cyclohex-2-en-1-one] | 468%
